# Laboratory results reported in ChEMBL document CHEMBL1141896, “Synthesis and structure-activity relationships of piperidinylpyrrolopyridine derivatives as potent and selective H1 antagonists” (Bioorg Med Chem Lett, 2005).
# Assays:
# Rattus norvegicus [1] = species on record: Rattus norvegicus; experiment: Effective dose against Histamine-induced skin vascular permeability model in rat after 4 hr (n = 5); type: functional
# [2] = target: Serotonin 2 (5-HT2) receptor (Homo sapiens, UniProt P41595+P28223+P28335); experiment: Inhibitory concentration against 5-hydroxytryptamine 2 receptor; type: protein assay
# [3] = target: T1, Adrenergic receptor alpha-1 (Rattus norvegicus, UniProt P15823+P23944+P43140); experiment: Binding affinity towards Alpha-1 adrenergic receptor in rat brain using [3H]prazosin as radioligand; type: tissue-based
# T1 sequence (P15823 whole entry): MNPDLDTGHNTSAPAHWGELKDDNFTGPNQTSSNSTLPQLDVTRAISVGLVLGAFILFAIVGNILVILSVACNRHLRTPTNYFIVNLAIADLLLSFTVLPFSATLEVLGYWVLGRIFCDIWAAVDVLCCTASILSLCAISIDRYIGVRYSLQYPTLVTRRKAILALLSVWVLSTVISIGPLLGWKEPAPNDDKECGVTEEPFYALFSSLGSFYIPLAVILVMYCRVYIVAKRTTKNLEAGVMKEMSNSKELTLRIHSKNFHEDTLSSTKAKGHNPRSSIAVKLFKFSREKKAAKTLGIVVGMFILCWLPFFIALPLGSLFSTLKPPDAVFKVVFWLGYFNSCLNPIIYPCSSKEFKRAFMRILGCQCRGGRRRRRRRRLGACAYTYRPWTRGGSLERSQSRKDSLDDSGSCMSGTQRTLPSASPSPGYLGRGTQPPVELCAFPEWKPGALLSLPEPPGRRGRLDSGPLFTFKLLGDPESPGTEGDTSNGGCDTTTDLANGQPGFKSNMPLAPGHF
# T1 sequence (P23944 whole entry): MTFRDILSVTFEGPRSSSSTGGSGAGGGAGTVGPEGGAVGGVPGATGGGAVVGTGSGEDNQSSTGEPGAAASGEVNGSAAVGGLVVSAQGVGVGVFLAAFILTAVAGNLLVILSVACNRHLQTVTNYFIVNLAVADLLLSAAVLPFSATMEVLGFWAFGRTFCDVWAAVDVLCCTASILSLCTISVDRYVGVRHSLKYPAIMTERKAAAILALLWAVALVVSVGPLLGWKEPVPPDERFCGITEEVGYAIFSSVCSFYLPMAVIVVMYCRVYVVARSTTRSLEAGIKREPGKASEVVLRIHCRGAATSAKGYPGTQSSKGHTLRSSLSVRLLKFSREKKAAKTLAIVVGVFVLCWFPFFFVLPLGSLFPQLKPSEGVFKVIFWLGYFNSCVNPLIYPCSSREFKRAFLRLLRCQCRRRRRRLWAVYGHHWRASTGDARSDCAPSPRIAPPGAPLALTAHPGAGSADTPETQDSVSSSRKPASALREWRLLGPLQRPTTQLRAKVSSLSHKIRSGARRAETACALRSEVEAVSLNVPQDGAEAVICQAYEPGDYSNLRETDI
# T1 sequence (P43140 whole entry): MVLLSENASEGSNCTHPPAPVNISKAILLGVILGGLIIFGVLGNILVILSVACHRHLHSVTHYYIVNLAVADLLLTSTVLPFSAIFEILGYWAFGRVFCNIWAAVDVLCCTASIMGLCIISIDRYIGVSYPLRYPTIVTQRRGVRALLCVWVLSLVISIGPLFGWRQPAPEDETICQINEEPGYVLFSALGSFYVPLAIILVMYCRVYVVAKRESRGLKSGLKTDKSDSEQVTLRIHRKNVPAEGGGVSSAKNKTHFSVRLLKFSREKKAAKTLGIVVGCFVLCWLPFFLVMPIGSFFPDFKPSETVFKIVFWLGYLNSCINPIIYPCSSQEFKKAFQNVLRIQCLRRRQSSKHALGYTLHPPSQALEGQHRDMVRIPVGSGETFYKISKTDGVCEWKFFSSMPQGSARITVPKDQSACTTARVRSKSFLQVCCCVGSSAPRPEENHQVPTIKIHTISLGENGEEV
# Histamine H1 receptor = Histamine H1 receptor (Cavia porcellus, UniProt P31389); experiment: Inhibitory concentration against histamine-H1 receptor
# Chain of Histamine H1 receptor (P31389 whole entry): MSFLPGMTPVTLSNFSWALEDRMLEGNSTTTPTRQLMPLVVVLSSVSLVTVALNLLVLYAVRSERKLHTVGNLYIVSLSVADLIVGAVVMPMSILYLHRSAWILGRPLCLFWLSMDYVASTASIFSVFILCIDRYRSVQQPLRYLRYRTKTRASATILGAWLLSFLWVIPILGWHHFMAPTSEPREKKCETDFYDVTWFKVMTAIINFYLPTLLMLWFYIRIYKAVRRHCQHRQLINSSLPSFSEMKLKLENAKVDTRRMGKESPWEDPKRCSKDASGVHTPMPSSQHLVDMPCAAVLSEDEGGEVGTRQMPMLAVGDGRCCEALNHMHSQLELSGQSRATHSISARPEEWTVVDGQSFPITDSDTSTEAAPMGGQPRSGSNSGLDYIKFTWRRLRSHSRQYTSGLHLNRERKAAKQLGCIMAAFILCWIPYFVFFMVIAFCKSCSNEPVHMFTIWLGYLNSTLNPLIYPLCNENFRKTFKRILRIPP
# [4] = target: Histamine H1 receptor (Mus musculus) (UniProt P70174); experiment: Ex vivo effective binding dose against histamine-H1 receptor (n = 3)
# Chain of Histamine H1 receptor (Mus musculus) (P70174 whole entry, looked up): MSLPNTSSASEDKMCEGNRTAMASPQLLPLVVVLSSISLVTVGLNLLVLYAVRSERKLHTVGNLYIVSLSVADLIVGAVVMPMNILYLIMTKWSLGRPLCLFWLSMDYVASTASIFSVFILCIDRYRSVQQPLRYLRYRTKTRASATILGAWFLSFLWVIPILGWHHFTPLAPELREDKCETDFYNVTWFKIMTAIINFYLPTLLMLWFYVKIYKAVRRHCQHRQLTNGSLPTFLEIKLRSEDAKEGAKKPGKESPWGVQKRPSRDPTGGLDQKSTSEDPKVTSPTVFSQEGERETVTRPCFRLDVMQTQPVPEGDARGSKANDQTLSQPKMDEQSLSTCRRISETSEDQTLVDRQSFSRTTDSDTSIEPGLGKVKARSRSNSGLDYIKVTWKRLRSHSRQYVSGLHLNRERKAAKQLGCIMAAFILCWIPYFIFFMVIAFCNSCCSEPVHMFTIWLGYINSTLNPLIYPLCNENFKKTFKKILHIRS
# Rattus norvegicus [5] = species on record: Rattus norvegicus; experiment: Effective dose against Histamine-induced skin vascular permeability model in rat after 8 hr (n = 5); type: functional
# Rattus norvegicus [6] = experiment: Inhibition of Histamine-induced skin vascular permeability model in rat after 4 hr at 1 mg/Kg (n = 5); type: functional
SMILES,ED50 (Rattus norvegicus [1]),IC50 [2],IC50 [3],IC50 (Histamine H1 receptor),ED50 [4],ED50 (Rattus norvegicus [5]),inhibition in vivo at 1 mg/kg (Rattus norvegicus [6])
CCCCn1cc(C2CCN(Cc3cccc(C(=O)O)c3)CC2)c2ccccc21,1 mg/kg,> 10 µM,> 10 µM,275 nM,,,
CCOCCn1cc(C2CCN(Cc3ccc(OC)c(C(=O)O)c3)CC2)c2ccccc21,0.05 mg/kg,10 µM,> 10 µM,690 nM,5.4 mg/kg,,
CCOCCn1cc(C2CCN(Cc3cccc(C(=O)O)c3)CC2)c2ccccc21,0.07 mg/kg,4.95 µM,> 10 µM,403 nM,16 mg/kg,0.45 mg/kg,
CCOCCn1cc(C2CCN(CCOc3ccccc3C(=O)O)CC2)c2ccccc21,0.08 mg/kg,> 10 µM,> 10 µM,190 nM,34 mg/kg,0.02 mg/kg,
COc1ccc(CN2CCC(c3cn(Cc4ccc(Cl)s4)c4ccccc34)CC2)cc1C(=O)O,0.5 mg/kg,10 µM,> 10 µM,365 nM,57 mg/kg,0.7 mg/kg,
CCOCCn1cc(C2CCN(CCOc3ccccc3C=O)CC2)c2ccccc21,0.1 mg/kg,3.272 µM,10 µM,86 nM,8 mg/kg,0.22 mg/kg,
O=C(O)c1cccc(CN2CCC(c3cn(Cc4ccc(Cl)s4)c4ccccc34)CC2)c1,,> 10 µM,> 10 µM,330 nM,,,7%
O=C(O)c1cccc(CN2CCC(c3cn(Cc4ccoc4)c4ccccc34)CC2)c1,1 mg/kg,10 µM,> 10 µM,560 nM,,,
COc1ccc(CN2CCC(c3cn(Cc4ccoc4)c4ccccc34)CC2)cc1C(=O)O,0.2 mg/kg,10 µM,> 10 µM,205 nM,15 mg/kg,0.2 mg/kg,
CCCCn1cc(C2CCN(Cc3ccc(OC)c(C(=O)O)c3)CC2)c2ccccc21,0.08 mg/kg,> 10 µM,> 10 µM,475 nM,69 mg/kg,0.13 mg/kg,
